From US20250136555A1 (HARBIN MEDISAN PHARMACEUTICAL CO., LTD., priority 2022, published 2025)
“Also recorded” adds a separate entry of the source.

How the values were obtained:
PPARγ = target: T1, PPARγ (Homo sapiens, UniProt P37231); assay: GAL4 hybrid reporter gene method, PPARγ agonistic activity; format: cell-based; settings: Cos-7 cells, Gal4-PPARγ (LBD); Rosiglitazone 1 μM = 100%; 16 h
T1 construct: expressed in transfected cells; host or cells: COS-7
T1 sequence (P37231 238-503 limits assumed): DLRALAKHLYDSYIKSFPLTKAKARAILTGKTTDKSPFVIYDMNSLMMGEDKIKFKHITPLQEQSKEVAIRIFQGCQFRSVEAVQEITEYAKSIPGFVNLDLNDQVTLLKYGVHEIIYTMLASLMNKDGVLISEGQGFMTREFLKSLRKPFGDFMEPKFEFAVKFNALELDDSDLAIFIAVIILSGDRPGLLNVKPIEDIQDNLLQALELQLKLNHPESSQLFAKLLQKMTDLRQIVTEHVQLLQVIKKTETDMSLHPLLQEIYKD
Method: Cos-7 cells (African green monkey kidney fibroblasts, commonly used tool cells) were cultured in a 10-cm cell culture dish with a DMEM complete medium containing 10% fetal bovine serum. When growing at a density of about 70%, the cells were ready for transfection. […] The working solution described above was then combined with 8 mL of the DMEM complete medium, and the mixture was added to the cell culture dish for cell transfection. After 4 h of transfection, the cells were digested, resuspended, and seeded into a 96-well plate at 25,000 cells/well. […] 10 μL of a reporter gene detection solution (purchased from Shanghai Beyotime Biological Tech. Co., Ltd.) was added. After the resulting solution was mixed and reacted, biological fluorescence was detected by using a multifunctional microplate reader, and corresponding half maximal effective concentration (EC50) values were calculated according to the detection values. […] Transfection working solutions for different nuclear receptors were prepared and added into COS-7 cells. The preparation method for the transfection working solution was as follows: the constructed pBIND-Gal4-PPARα (LBD) (or pBIND-Gal4-PPARδ (LBD) plasmid or pBIND-Gal4-PPARγ (LBD) plasmid or pBIND-Gal4-RARα (LBD) plasmid or pBIND-Gal4-RARγ (LBD) plasmid or pBIND-Gal4-RARβ (LBD) plasmid or pBIND-Gal4-RORα (LBD) plasmid or pBIND-Gal4-RORγ (LBD) plasmid or pBIND-Gal4-RORβ (LBD) plasmid or pBIND-Gal4-FXR (LBD) plasmid or pBIND-Gal4-RXRα.

[1] = tested on: PPARα/δ downstream target genes; assay: Expression of PPARα/δ downstream target genes in mouse liver and skeletal muscle; format: in vivo, C57 mice; settings: mice, 0.03 and 0.1 mg/kg, three days
Method: C57 mice were divided into three groups, i.e., a control group, a low dose group (0.03 mg/kg), and a high dose group (0.1 mg/kg), with 6 mice in each group. Each group of mice was intragastrically administered compound 1 or a solvent control with the same volume for three consecutive days according to the doses. Three days after administration, the mice were euthanized and dissected for sampling. Liver and skeletal muscle were snap-frozen in liquid nitrogen for subsequent experiments. After extracting RNA in the liver and skeletal muscle, the up-regulation fold of the expression of the PPARα/δ downstream target genes was detected. […] Some of other compounds of the present invention also have similar effects.

C57 mice = assay: Serum triglyceride levels in mice; format: in vivo
Method: Animals: 48 male C57 mice, SPF grade, 8 weeks old, weighing about 20 g, purchased from Beijing Vital River. All animals maintained a 12-hour alternating circadian rhythm and were given ad libitum access to food and water. […] Mice in the control group were administered a solvent control CMC-Na every day, and mice in each of the administration groups were administered the corresponding drug every day. Intragastric administration was performed for 5 consecutive days, and the mice were given ad libitum access to food and water during administration. Each group of mice was weighed every day, and their body weight, hair, feces, and activities were carefully observed and recorded. Two hours after administration on day 5, blood was collected from the orbit, and the mice were euthanized. The whole blood was left to stand at room temperature for 2 h and centrifuged at 3000 rpm for 15 min, and serum was collected. The serum was placed onto the automatic biochemical analyzer (Google Biotechnology Co., Ltd.) to determine the triglyceride (TG) levels in the serum.

[2] = tested on: ANIT-induced cholestasis in mice; assay: α-Naphthylisothiocyanate (ANIT)-induced cholestasis in mice; format: in vivo, C57 mice
Method: Animals: 25 male C57 mice, SPF grade, 8 weeks old, weighing about 20 g, purchased from Beijing Vital River. All animals maintained a 12-hour alternating circadian rhythm and were given ad libitum access to food and water. […] The mice were all fed food and water normally. The molding and administration processes were as follows: the mice in each of the administration groups were intragastrically administered the corresponding doses and types of compounds 6 h before modeling, and the mice in the control group and the model group were administered solvent controls with the same volume. When modeling, except for the control group, the mice in each group were intragastrically administered ANIT at a dose of 80 mg/kg, and the mice in the control group were administered the solvent control with the same volume. The administration was then continued for two days, once per day. Each group of mice was weighed every day, and their body weight, hair, feces, and activities were carefully observed and recorded. Forty-eight hours after giving ANIT for molding, blood was collected from the orbit, the mice were euthanized, and the liver was collected. The right lobular tissue of the liver was fixed with 4% paraformaldehyde and used for sectioning followed by HE staining. The remaining liver tissues were snap-frozen in liquid nitrogen for subsequent assays of other indexes. The whole blood was left to stand at room temperature for 2 h and centrifuged at 3000 rpm for 15 min, and serum was collected. Levels of aspartate aminotransferase (AST), alanine aminotransferase (ALT), alkaline phosphatase (ALP), total bilirubin (TBil), and total bile acid (TBA) in the serum were assayed. The fixed tissue was sent to Wuhan Servicebio Technology Co., Ltd. for preparing HE-stained sections. The test was performed using a tissue and blood alkaline phosphatase (AKP/ALP) activity assay kit (BC2145) purchased from Beijing Solarbio Science & Technology Co., Ltd. The liver tissue stored at −80° C. was taken and placed in liquid nitrogen, about 0.1 g of liver tissue was rapidly cut off, and 1 mL of an extracting solution was added. The mixture was ground thoroughly and centrifuged at 4° C. and 10000 rpm for 10 min, and the supernatant was collected for assay. The assay was performed by referring to the method in the product's instruction. Data were corrected according to protein concentrations of the samples, and the catalytic production of 1 μmol phenol per minute per milligram protein at 37° C. was defined as one enzymatic activity unit.

NASH model mice = assay: NASH induced by HF-CDAA diet in mice; format: in vivo, C57 mice
[3] = NASH model mice, 0.1 mg/kg intragastric daily, 2 weeks
[4] = compound 1 0.1 mg/kg vs GFT505 10 mg/kg

Structure (SMILES): Cc1cc(CN2C(=O)CN(c3ccc(C(F)(F)F)cc3)C2=O)cc(C)c1OC(C)(C)C(=O)O [Compound 1, 2-(4-((2,5-Dioxo-3-(4-(trifluoromethyl)phenyl)imidazolidin-1-yl)methyl)-2,6-dimethylphenoxy)-2-methylpropionic Acid]
- EC50 (PPARγ): 1660 nM
- expression of PPARα/δ downstream target genes in liver and skeletal muscle [1]: significantly up-regulated
- triglyceride level in mouse serum (FIG. 1) (C57 mice; 1 mg/kg intragastric, 5 consecutive days): significantly reduce the triglyceride level
- effect in reducing triglycerides versus positive drugs (C57 mice; compound 1 1 mg/kg vs GFT505 1 mg/kg, pemafibrate 1 mg/kg, fenofibrate 30 mg/kg): significantly more effective in reducing triglycerides than GFT505 and pemafibrate at the equivalent dose; also recorded: superior to fenofibrate
- intrahepatic cholestasis: liver morphology and serum color (FIG. 2) ([2]; ANIT 80 mg/kg, 0.03 and 0.1 mg/kg intragastric): effectively improve intrahepatic cholestasis
- therapeutic effect on mouse cholestatic model (conclusion) ([2]; ANIT model): potent therapeutic effect
- level of intrahepatic ALP (FIG. 4) ([2]; ANIT model, 0.03 and 0.1 mg/kg): significantly down-regulate
- necrotic areas in the liver, HE staining (FIG. 5) ([2]; ANIT model, 0.03 and 0.1 mg/kg): dose-dependently reduce the number and area of necrotic areas
- serum ALP (FIG. 3) ([2]; ANIT model, 0.03 and 0.1 mg/kg): a certain tendency to reduce
- serum ALT level (FIG. 3) ([2]; ANIT model, 0.03 and 0.1 mg/kg): dose-dependently and significantly down-regulate
- serum AST level (FIG. 3) ([2]; ANIT model, 0.03 and 0.1 mg/kg): dose-dependently and significantly down-regulate
- serum TBA level (FIG. 3) ([2]; ANIT model, 0.03 and 0.1 mg/kg): dose-dependently and significantly down-regulate
- serum TBil level (FIG. 3) ([2]; ANIT model, 0.03 and 0.1 mg/kg): dose-dependently and significantly down-regulate
- ability to improve general appearance of the liver and serum color versus GFT505 ([2]; compound 1 0.03 mg/kg vs GFT505 30 mg/kg): comparable to the effect of GFT505 at 30 mg/kg
- effects on reducing hepatic enzymes, total bilirubin and total bile acid versus GFT505 ([2]; compound 1 0.1 mg/kg vs GFT505 30 mg/kg): comparable to that of GFT505 at 30 mg/kg
- effect on reducing intrahepatic ALP versus GFT505 ([2]; compound 1 at the two doses vs GFT505 30 mg/kg): slightly superior to that of GFT505 at 30 mg/kg
- pathological state of NASH mice (conclusion) (NASH model mice; 0.1 mg/kg): significantly improve the pathological state
- collagen deposition in liver, sirius red staining (FIG. 8) (NASH model mice; NASH model mice, 0.1 mg/kg): reduce collagen deposition
- inflammatory infiltration in hepatic lobules, HE staining (FIG. 7) (NASH model mice; NASH model mice, 0.1 mg/kg): reduce inflammatory infiltration
- lipid droplets in liver, oil red staining (FIG. 9) (NASH model mice; NASH model mice, 0.1 mg/kg): reduce the number and area of lipid droplets
- liver mRNA expression level of Acta2 (FIG. 12) (NASH model mice; NASH model mice, 0.1 mg/kg): inhibit the increase
- liver mRNA expression level of Ccl2 (FIG. 11) (NASH model mice; NASH model mice, 0.1 mg/kg): inhibit the increase
- liver mRNA expression level of Ccl5 (FIG. 11) (NASH model mice; NASH model mice, 0.1 mg/kg): inhibit the increase
- liver mRNA expression level of Cd11b (FIG. 11) (NASH model mice; NASH model mice, 0.1 mg/kg): inhibit the increase
- liver mRNA expression level of Col1a1 (FIG. 12) (NASH model mice; NASH model mice, 0.1 mg/kg): inhibit the increase
- liver mRNA expression level of Col3a1 (FIG. 12) (NASH model mice; NASH model mice, 0.1 mg/kg): inhibit the increase
- liver mRNA expression level of Tgfb1 (FIG. 12) (NASH model mice; NASH model mice, 0.1 mg/kg): inhibit the increase
- liver mRNA expression level of Tnf (FIG. 11) (NASH model mice; NASH model mice, 0.1 mg/kg): inhibit the increase
- triglyceride content in the liver (FIG. 10) (NASH model mice; NASH model mice, 0.1 mg/kg): reduce triglyceride accumulation
- serum ALT level (FIG. 6) (NASH model mice; [3]): down-regulated
- serum AST level (FIG. 6) (NASH model mice; [3]): down-regulated
- effect on reducing hepatic enzymes versus GFT505 (NASH model mice; [4]): slightly better effect on reducing the levels of hepatic enzymes than that of GFT505 at 10 mg/kg
- effect on reducing hepatic triglycerides versus GFT505 (NASH model mice; [4]): superior to that of GFT505 at 10 mg/kg
- effect on reducing lipid accumulation versus GFT505 (NASH model mice; [4]): superior to that of GFT505 at 10 mg/kg
- therapeutic effect in NASH mice versus GFT505 (NASH model mice; [4]): equivalent therapeutic effect to that of GFT505 at a dose of 10 mg/kg
